# US7507568B2, “Three dimensional coordinates of HPTPbeta” (The Proctor & Gamble Company, priority 2002, dated 2009)
# Target: T1, PTPbeta catalytic domain [SEQ ID NO: 7] (Homo sapiens, UniProt P23467)
# T1 construct: made in house; host or cells: Escherichia coli BL21-RIL
# Assay: Inhibition of HPTPbeta (relative inhibitor potency, stated in words)
# Type: biochemical
# Settings: qualitative comparison; no numerical values or assay method printed
# T1 sequence (P23467 with tags, fused parts or gaps): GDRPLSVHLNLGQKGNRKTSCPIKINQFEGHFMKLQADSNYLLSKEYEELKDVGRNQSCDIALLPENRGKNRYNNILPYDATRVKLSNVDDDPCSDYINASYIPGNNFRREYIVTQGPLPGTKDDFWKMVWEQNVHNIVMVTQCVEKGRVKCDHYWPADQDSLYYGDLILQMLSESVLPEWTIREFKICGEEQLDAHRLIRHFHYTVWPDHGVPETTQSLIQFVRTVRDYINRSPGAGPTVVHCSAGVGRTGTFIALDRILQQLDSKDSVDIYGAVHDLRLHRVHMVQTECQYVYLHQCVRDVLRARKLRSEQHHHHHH
compound,measurement,value
"CNC(=O)[C@H](Cc1ccc(NS(=O)(=O)O)cc1)NC(=O)C(Cc1ccc(O)cc1)NC(=O)OC(C)(C)C (stereo in doubt) [Compound 2, {2-(4-Hydroxy-phenyl)-1-[1-methylcarbamoyl-2-(4-sulfoamino-phenyl)-ethylcarbamoyl]-ethyl}-carbamic acid tert-butyl ester]",inhibitor potency relative to Compound 1,more potent inhibitor than Compound 1
